From the NIST ThermoML archive (doi:10.1016/j.fluid.2017.06.019)

Details: Coaxial cylinder method

CCC [propane]
thermal conductivity [W/m/K]
Details | 364.65 K | 365.72 K
3306 kPa, Gas | – | 0.03402
3306 kPa, Liquid | – | 0.03402
3818 kPa, Gas | 0.04192 | –
3819 kPa, Gas | 0.04192 | –
3820 kPa, Gas | 0.04192 | –
3826 kPa, Gas | 0.04799 | –
3827 kPa, Gas | 0.05041 | –
3828 kPa, Gas | 0.05375 | –
3829 kPa, Gas | 0.05683 | –
3830 kPa, Gas | 0.05989 | –
3831 kPa, Gas | 0.06347 | –
3832 kPa, Gas | 0.0673 | –
3833 kPa, Gas | 0.07157 | –
3834 kPa, Gas | 0.0754 | –
3835 kPa, Gas | 0.07969 | –
3836 kPa, Gas | 0.08397 | –
3837 kPa, Gas | 0.08791 | –
3838 kPa, Gas | 0.09202 | –
3839 kPa, Gas | 0.09605 | –
3840 kPa, Gas | 0.1002 | –
3841 kPa, Gas | 0.1044 | –
3842 kPa, Gas | 0.1088 | –
3843 kPa, Gas | 0.1131 | –
3844 kPa, Gas | 0.1173 | –
3845 kPa, Gas | 0.1218 | –
3846 kPa, Gas | 0.1263 | –
3847 kPa, Gas | 0.1307 | –
3848 kPa, Gas | 0.135 | –
3849 kPa, Gas | 0.14 | –
3850 kPa, Gas | 0.1445 | –
3851 kPa, Gas | 0.1491 | –
3852 kPa, Gas | 0.1538 | –
3853 kPa, Gas | 0.1584 | –
3854 kPa, Gas | 0.1635 | –
3855 kPa, Gas | 0.1693 | –
3856 kPa, Gas | 0.1732 | –
3857 kPa, Gas | 0.1782 | –
3858 kPa, Gas | 0.1831 | –
3859 kPa, Gas | 0.1881 | –
3860 kPa, Gas | 0.1933 | –
3861 kPa, Gas | 0.1983 | –
3862 kPa, Gas | 0.2036 | –
3863 kPa, Gas | 0.2089 | –
3864 kPa, Gas | 0.2141 | –
3865 kPa, Gas | 0.2194 | –
3866 kPa, Gas | 0.2249 | –
3867 kPa, Gas | 0.2303 | –
3868 kPa, Gas | 0.2361 | –
3869 kPa, Gas | 0.2404 | –
3870 kPa, Liquid | 0.2611 | –
3871 kPa, Liquid | 0.2548 | –
3872 kPa, Liquid | 0.249 | –
3873 kPa, Liquid | 0.2424 | –
3874 kPa, Liquid | 0.2366 | –
3875 kPa, Liquid | 0.2306 | –
3876 kPa, Liquid | 0.2246 | –
3877 kPa, Liquid | 0.2189 | –
3878 kPa, Liquid | 0.2127 | –
3879 kPa, Liquid | 0.2068 | –
3880 kPa, Liquid | 0.2008 | –
3881 kPa, Liquid | 0.1952 | –
3882 kPa, Gas | – | 0.04279
3882 kPa, Liquid | 0.1898 | –
3883 kPa, Gas | – | 0.04289
3883 kPa, Liquid | 0.1838 | –
3884 kPa, Gas | – | 0.04575
3884 kPa, Liquid | 0.1778 | –
3885 kPa, Gas | – | 0.04607
3885 kPa, Liquid | 0.1728 | –
3886 kPa, Liquid | 0.1668 | –
3887 kPa, Liquid | 0.1613 | –
3888 kPa, Liquid | 0.1556 | –
3889 kPa, Liquid | 0.1503 | –
3890 kPa, Gas | – | 0.05157
3890 kPa, Liquid | 0.1444 | –
3891 kPa, Gas | – | 0.05307
3891 kPa, Liquid | 0.1391 | –
3892 kPa, Gas | – | 0.05526
3892 kPa, Liquid | 0.1337 | –
3893 kPa, Gas | – | 0.0573
3893 kPa, Liquid | 0.1279 | –
3894 kPa, Gas | – | 0.05933
3894 kPa, Liquid | 0.1224 | –
3895 kPa, Gas | – | 0.06131
3895 kPa, Liquid | 0.117 | –
3896 kPa, Gas | – | 0.06342
3896 kPa, Liquid | 0.1115 | –
3897 kPa, Gas | – | 0.06568
3897 kPa, Liquid | 0.1061 | –
3898 kPa, Gas | – | 0.06813
3898 kPa, Liquid | 0.1008 | –
3899 kPa, Gas | – | 0.07049
3899 kPa, Liquid | 0.09527 | –
3900 kPa, Gas | – | 0.07276
3900 kPa, Liquid | 0.08987 | –
3901 kPa, Gas | – | 0.07497
3901 kPa, Liquid | 0.08442 | –
3902 kPa, Gas | – | 0.07801
3902 kPa, Liquid | 0.07906 | –
3903 kPa, Gas | – | 0.0811
3903 kPa, Liquid | 0.07632 | –
3904 kPa, Gas | – | 0.08423
3904 kPa, Liquid | 0.0735 | –
3905 kPa, Gas | – | 0.08726
3905 kPa, Liquid | 0.07087 | –
3906 kPa, Gas | – | 0.09038
3906 kPa, Liquid | 0.06861 | –
3907 kPa, Gas | – | 0.09365
3907 kPa, Liquid | 0.06633 | –
3908 kPa, Gas | – | 0.09697
3908 kPa, Liquid | 0.06424 | –
3909 kPa, Gas | – | 0.1001
3909 kPa, Liquid | 0.06367 | –
3910 kPa, Gas | – | 0.1033
3910 kPa, Liquid | 0.06367 | –
3911 kPa, Gas | – | 0.1068
3911 kPa, Liquid | 0.06367 | –
3912 kPa, Gas | – | 0.1099
3912 kPa, Liquid | 0.06367 | –
3913 kPa, Gas | – | 0.1132
3913 kPa, Liquid | 0.06367 | –
3914 kPa, Gas | – | 0.1164
3914 kPa, Liquid | 0.06367 | –
3915 kPa, Gas | – | 0.1201
3915 kPa, Liquid | 0.0637 | –
3916 kPa, Gas | – | 0.1234
3917 kPa, Gas | – | 0.1273
3918 kPa, Gas | – | 0.1307
3919 kPa, Gas | – | 0.1341
3920 kPa, Gas | – | 0.1379
3920 kPa, Liquid | 0.06366 | –
3921 kPa, Gas | – | 0.1413
3922 kPa, Gas | – | 0.1454
3923 kPa, Gas | – | 0.149
3924 kPa, Gas | – | 0.1527
3925 kPa, Gas | – | 0.1565
3925 kPa, Liquid | 0.06366 | –
3926 kPa, Gas | – | 0.1605
3927 kPa, Gas | – | 0.1644
3928 kPa, Gas | – | 0.1684
3929 kPa, Gas | – | 0.1724
3930 kPa, Gas | – | 0.1763
3930 kPa, Liquid | 0.06362 | –
3931 kPa, Gas | – | 0.1804
3932 kPa, Gas | – | 0.1846
3933 kPa, Gas | – | 0.1886
3934 kPa, Gas | – | 0.1932
3935 kPa, Gas | – | 0.1972
3935 kPa, Liquid | 0.06364 | –
3936 kPa, Gas | – | 0.2015
3937 kPa, Gas | – | 0.2059
3938 kPa, Gas | – | 0.2104
3939 kPa, Gas | – | 0.2148
3940 kPa, Gas | – | 0.2193
3940 kPa, Liquid | 0.06364 | –
3941 kPa, Gas | – | 0.2241
3942 kPa, Gas | – | 0.229
3943 kPa, Gas | – | 0.2336
3944 kPa, Gas | – | 0.2401
3945 kPa, Liquid | 0.06362 | 0.2612
3946 kPa, Liquid | – | 0.2502
3947 kPa, Liquid | – | 0.2373
3948 kPa, Liquid | – | 0.224
3949 kPa, Liquid | – | 0.2125
3950 kPa, Liquid | 0.06362 | 0.2005
3951 kPa, Liquid | – | 0.1903
3952 kPa, Liquid | – | 0.1805
3953 kPa, Liquid | – | 0.1711
3954 kPa, Liquid | – | 0.1622
3955 kPa, Liquid | 0.06362 | 0.1544
3956 kPa, Liquid | – | 0.1467
3957 kPa, Liquid | – | 0.1394
3958 kPa, Liquid | – | 0.1335
3959 kPa, Liquid | – | 0.1273
3960 kPa, Liquid | 0.06362 | 0.1217
3961 kPa, Liquid | – | 0.1164
3962 kPa, Liquid | – | 0.1139
3963 kPa, Liquid | – | 0.1116
3964 kPa, Liquid | – | 0.1094
3965 kPa, Liquid | 0.06362 | 0.1072
3966 kPa, Liquid | – | 0.1052
3967 kPa, Liquid | – | 0.1032
3968 kPa, Liquid | – | 0.1013
3969 kPa, Liquid | – | 0.09939
3970 kPa, Liquid | 0.06362 | 0.09778
3971 kPa, Liquid | – | 0.09605
3972 kPa, Liquid | – | 0.09456
3973 kPa, Liquid | – | 0.09289
3974 kPa, Liquid | – | 0.09145
3975 kPa, Liquid | 0.0636 | 0.09005
3976 kPa, Liquid | – | 0.08869
3977 kPa, Liquid | – | 0.08737
3980 kPa, Liquid | 0.0636 | –
4000 kPa, Liquid | 0.06363 | –
4020 kPa, Liquid | 0.06367 | –
4040 kPa, Liquid | 0.06367 | –
4060 kPa, Liquid | 0.06371 | –
4080 kPa, Liquid | 0.06377 | –
4100 kPa, Liquid | 0.06381 | –
4120 kPa, Liquid | 0.06385 | –
4140 kPa, Liquid | 0.06391 | –
4160 kPa, Liquid | 0.06398 | –
4180 kPa, Liquid | 0.06404 | –
4200 kPa, Liquid | 0.06412 | –
4220 kPa, Liquid | 0.06418 | –
4240 kPa, Liquid | 0.06424 | –
4260 kPa, Liquid | 0.06432 | –
4280 kPa, Liquid | 0.06439 | –
4300 kPa, Liquid | 0.06445 | –
4349 kPa, Liquid | 0.06465 | –
4364 kPa, Liquid | 0.06469 | –
4372 kPa, Liquid | 0.06473 | –
4380 kPa, Liquid | 0.06475 | –
4388 kPa, Liquid | 0.06475 | –
